Laboratory results taken from ChEMBL document CHEMBL4130407, “A novel class of thiosemicarbazones show multi-functional activity for the treatment of Alzheimer's disease” (Eur J Med Chem, 2017).
Calls of active or inactive are those of the source. The rule behind the calls is not given here.

Columns and labels:
SK-N-MC [1] = test: Induction of autophagy in human SK-N-MC cells assessed as increase in LC3 accumulation at 25 uM after 24 hrs in presence of autophagy inhibitor Baf1 by Western blot analysis; format: functional, cell-based
SK-N-MC [2] = test: cells; conditions: Homo sapiens, read-out: Activity
Description: (§1) Neuroprotective activity against H2O2-induced cell death in human SK-N-MC cells assessed as cell viability at 10 uM preincubated for 2 hrs followed by H2O2 addition and measured after 24 hrs by MTT assay

SK-N-MC [3] = test: Binding affinity to 59Fe2+ in human SK-N-MC cells labeled with 59Fe2-transferrin assessed as Fe release at 25 uM after 3 hrs by gamma scintillation counting method relative to DFO; format: cell-based
[4] = Metal chelation activity assessed as 1:1 compound to Cu2+L complex formation in DMF:H2O (7:3) solution by EPR spectrscopy
SK-N-MC [5] = test: Induction of autophagy in human SK-N-MC cells assessed as decrease in p62 level at 25 uM after 24 hrs by Western blot analysis; format: functional, cell-based
SK-N-MC [6] = test: cells; format: ADME, cell-based; conditions: Homo sapiens, 72 h
Description: Antiproliferative activity against human SK-N-MC cells after 72 hrs by MTT assay

SK-N-MC [7] = test: Induction of autophagy in human SK-N-MC cells assessed as increase in LC3 accumulation at 25 uM after 24 hrs in absence of autophagy inhibitor Baf1 by Western blot analysis; format: functional, cell-based
Acetylcholinesterase = Acetylcholinesterase (Electrophorus electricus, UniProt O42275); test: Inhibition of electric eel AChE using acetylthiocholine iodide as substrate preincubated for 15 mins followed by substrate addition measured for 5 mins by UV spectrophotometric analysis
Sequence of Acetylcholinesterase (O42275 whole entry): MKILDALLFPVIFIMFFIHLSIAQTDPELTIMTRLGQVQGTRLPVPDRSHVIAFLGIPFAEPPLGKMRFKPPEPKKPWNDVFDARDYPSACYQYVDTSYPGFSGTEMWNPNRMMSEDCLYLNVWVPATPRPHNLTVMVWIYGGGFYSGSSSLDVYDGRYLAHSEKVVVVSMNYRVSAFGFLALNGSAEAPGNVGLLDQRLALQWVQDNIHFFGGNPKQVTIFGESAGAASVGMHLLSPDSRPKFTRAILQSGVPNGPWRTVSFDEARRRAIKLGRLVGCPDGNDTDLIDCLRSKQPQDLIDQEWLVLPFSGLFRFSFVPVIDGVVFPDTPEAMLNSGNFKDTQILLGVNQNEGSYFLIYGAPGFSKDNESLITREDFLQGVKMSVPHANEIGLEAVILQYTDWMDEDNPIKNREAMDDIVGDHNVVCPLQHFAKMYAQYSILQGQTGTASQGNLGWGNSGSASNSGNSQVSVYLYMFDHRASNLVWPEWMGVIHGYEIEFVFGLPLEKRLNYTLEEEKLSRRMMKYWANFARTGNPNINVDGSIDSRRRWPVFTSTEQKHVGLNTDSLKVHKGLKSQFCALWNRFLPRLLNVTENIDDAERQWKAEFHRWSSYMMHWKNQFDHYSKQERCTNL

[8] = Metal chelation activity assessed as 1:1 compound to Cu2+L2 complex formation in DMF:H2O (7:3) solution by EPR spectrscopy
[9] = Metal chelation activity assessed as 1:2 Fe3+:L complex formation in DMF:H2O (7:3) solution by EPR spectrscopy
[10] = Metal chelation activity assessed as 1:1 compound to Cu2+L complex formation in DMF:H2O (7:3) solution by cyclic voltametry
[11] = Metal chelation activity assessed as 1:2 Fe3+:L complex formation in DMF:H2O (7:3) solution by cyclic voltametry
[12] = Metal chelation activity assessed as 1:2 Fe2+:L complex formation in DMF:H2O (7:3) solution by EPR spectrscopy
SK-N-MC [13] = conditions: Homo sapiens, 10 uM
Description: as §1

| SMILES | Activity (SK-N-MC [1]) | viability at 10 µM (SK-N-MC [2]) [%] | Activity (SK-N-MC [3]) [%] | Activity [4] | Activity (SK-N-MC [5]) | IC50 (SK-N-MC [6]) [µM] | Activity (SK-N-MC [7]) | IC50 (Acetylcholinesterase) [µM] | Activity [8] | Activity [9] | Activity [10] | Activity [11] | Activity [12] | Activity (SK-N-MC [13]) |
| --- | --- | --- | --- | --- | --- | --- | --- | --- | --- | --- | --- | --- | --- | --- |
| Oc1cccc(/C=N/NC(=S)NC2CCN(Cc3ccccc3)CC2)c1O | inactive | 66 to 87 | 29 | Active | inactive | 16.9 | Active | 1.02 | – | – | – | – | – | – |
| Oc1ccccc1/C=N/NC(=S)NC1CCN(Cc2ccccc2)CC1 | inactive | 66 to 87 | 28 | Active | Active | 34.4 | – | 1.02 to 22.6 | inactive | Active | Active | Active | – | – |
| CN(C)C(=S)NN=C(c1ccccn1)c1ccccn1 | Active | – | – | – | Active | 0.013 | – | – | – | – | – | – | – | – |
| Oc1ccc(/C=N/NC(=S)NC2CCN(Cc3ccccc3)CC2)c(O)c1O | Active | 66 to 87 | 14 | Active | inactive | 79.1 | – | 1.02 to 22.6 | – | – | – | – | Active | – |
| Oc1cccc2ccc(/C=N/NC(=S)NC3CCN(Cc4ccccc4)CC3)nc12 | Active | 66 to 87 | 17 | Active | inactive | 36.1 | Active | 1.02 to 22.6 | – | – | Active | Active | – | – |
| COc1cc2c(cc1OC)C(=O)C(CC1CCN(Cc3ccccc3)CC1)C2 (stereo unspecified) [DONEPEZIL] | – | 74 | – | – | – | > 100 | – | – | – | – | – | – | – | – |
| Cc1ncc(CO)c(/C=N/NC(=S)NC2CCN(Cc3ccccc3)CC2)c1O | Active | 66 to 87 | 31 | Active | inactive | > 100 | – | 4.93 | inactive | Active | Active | Active | – | – |
| Oc1ccc2ccccc2c1/C=N/NC(=S)NC1CCN(Cc2ccccc2)CC1 | inactive | – | 16 | Active | Active | 8.86 | Active | 1.23 | inactive | Active | Active | Active | – | inactive |
| S=C(N/N=C/c1ccc2ccccc2n1)NC1CCN(Cc2ccccc2)CC1 | inactive | 66 to 87 | – | Active | inactive | 17.7 | – | 1.02 to 22.6 | – | Active | Active | Active | – | – |
| CC(=O)N(O)CCCCCNC(=O)CCC(=O)N(O)CCCCCNC(=O)CCC(=O)N(O)CCCCCN [DEFEROXAMINE] | – | 89 | – | – | – | 16.8 | – | – | – | – | – | – | – | – |
| S=C(N/N=C/c1ccccn1)NC1CCN(Cc2ccccc2)CC1 | Active | 66 to 87 | 18 | Active | inactive | 4.23 | – | 1.02 to 22.6 | – | Active | Active | Active | – | – |
